Reference: ChEMBL document CHEMBL1201862, “PubChem BioAssay data set” (2004)
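Each compound was tested at five concentrations against cells in 96-well plates for 48 hours. GI50 is the concentration that inhibits growth by half.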 Calls of active or inactive are those of the source. Cut-off read from the data, not from the text of the source: active = GI50 up to about 1.1 µM and inactive = higher.

What was measured:
Assay in all cases: inhibition of tumour cell growth, NCI panel, 48 h
[1] = system: HOP-62
[2] = system: SNB-19
[3] = system: A498
[4] = system: OVCAR-8
[5] = system: SF-295
[6] = system: HOP-92
[7] = system: TK-10
[8] = system: NCI-H522
[9] = system: M14
[10] = system: KM12
[11] = system: KM-20L2
[12] = system: CCRF-CEM
[13] = system: ACHN
[14] = system: HL-60
[15] = system: NCI-H460
[16] = system: SK-MEL-5
[17] = system: IGROV-1
[18] = system: UACC-62
[19] = system: LOX IMVI
[20] = system: MDA-MB-435

In the case of `CCCCN(CC)C(=O)C(=O)Cc1nc2ccc(C(=O)c3ccccc3)cc2nc1O`, the GI50 [1] is reported as > 100 µM (inactive), the GI50 [2] is reported as 98.6 µM (inactive) and the GI50 [3] is reported as > 100 µM (inactive). For the same compound, the GI50 [4] was > 100 µM (inactive), the GI50 [5] was 59 µM (inactive) and the GI50 [6] was 53 µM (inactive). The GI50 [7] was > 84.5 µM (inactive), the GI50 [8] was 20.3 µM (inactive) and the GI50 [9] was > 100 µM (inactive). The GI50 [10] was > 100 µM (inactive), the GI50 [11] was 31.7 µM (inactive) and the GI50 [12] was 27.2 µM (inactive). The GI50 [13] was 41 µM (inactive), the GI50 [14] was 20.8 µM (inactive) and the GI50 [15] was 13.6 µM (inactive). For the same compound, the GI50 [16] was 50.1 µM (inactive), the GI50 [17] was > 100 µM (inactive) and the GI50 [18] was 66.5 µM (inactive). For the same compound, the GI50 [19] was > 84.7 µM (inactive).

`CC(C)(C)/N=N/C(C)(C)N=C=O` was tested, and the GI50 [1] was > 100 µM (inactive), the GI50 [2] was > 100 µM (inactive) and the GI50 [3] was > 100 µM (inactive). For the same compound, the GI50 [4] was > 100 µM (inactive), the GI50 [5] was 60.1 µM (inactive) and the GI50 [6] was > 100 µM (inactive). For the same compound, the GI50 [7] was > 100 µM (inactive), the GI50 [8] was > 100 µM (inactive) and the GI50 [9] was > 100 µM (inactive). The GI50 [10] was > 100 µM (inactive), the GI50 [11] was > 100 µM (inactive) and the GI50 [12] was > 100 µM (inactive). The GI50 [13] was > 100 µM (inactive), the GI50 [14] was > 100 µM (inactive) and the GI50 [15] was > 100 µM (inactive). The GI50 [16] was > 100 µM (inactive), the GI50 [17] was > 100 µM (inactive) and the GI50 [18] was > 100 µM (inactive). For the same compound, the GI50 [19] was > 100 µM (inactive).

In the case of `COc1cc2c(oc(=O)c3c4oc([Si](C)(C)C)cc4cc(OC)c23)c2cccc(O)c12`, the GI50 [1] is reported as > 100 µM (inactive), the GI50 [2] is reported as > 100 µM (inactive) and the GI50 [3] is reported as > 100 µM (inactive). For the same compound, the GI50 [4] was > 100 µM (inactive), the GI50 [5] was > 100 µM (inactive) and the GI50 [6] was > 100 µM (inactive). The GI50 [7] was > 100 µM (inactive), the GI50 [8] was > 100 µM (inactive) and the GI50 [9] was > 100 µM (inactive). The GI50 [10] was > 100 µM (inactive), the GI50 [11] was > 100 µM (inactive) and the GI50 [12] was > 100 µM (inactive). For the same compound, the GI50 [13] was > 100 µM (inactive), the GI50 [14] was > 100 µM (inactive) and the GI50 [15] was > 100 µM (inactive). For the same compound, the GI50 [16] was > 100 µM (inactive), the GI50 [17] was > 100 µM (inactive) and the GI50 [18] was > 100 µM (inactive). For the same compound, the GI50 [19] was > 100 µM (inactive).

With `CNC1C(O)CC(OC2C/C=C(\C)C/C(C)=C/C=C/CCC(C)CNC(=O)/C=C/C=C/C2C)OC1C` (stereo not given) the GI50 [1] was 1.03 µM (active), the GI50 [2] was 2.84 µM (inactive) and the GI50 [3] was 1.72 µM (inactive). For the same compound, the GI50 [4] was 0.324 µM (active), the GI50 [5] was 0.25 µM (active) and the GI50 [6] was 0.451 µM (active). For the same compound, the GI50 [7] was 1.1 µM (active), the GI50 [20] was 0.377 µM (active) and the GI50 [8] was 0.973 µM (active). The GI50 [9] was 0.24 µM (active), the GI50 [10] was 0.432 µM (active) and the GI50 [11] was 0.63 µM (active). The GI50 [12] was 0.153 µM (active), the GI50 [13] was 1.5 µM (inactive) and the GI50 [14] was 0.153 µM (active). The GI50 [15] was 0.173 µM (active), the GI50 [16] was 0.811 µM (active) and the GI50 [17] was 1.29 µM (inactive). For the same compound, the GI50 [18] was 0.44 µM (active) and the GI50 [19] was 0.103 µM (active).

For `O=c1[nH]c(=O)n(C2CC(O)C(CO)O2)cc1C(F)(C(F)(F)F)C(F)(F)F` (stereo not given), the GI50 [1] was > 100 µM (inactive), the GI50 [2] was > 100 µM (inactive) and the GI50 [3] was > 100 µM (inactive). The GI50 [4] was > 100 µM (inactive), the GI50 [5] was > 100 µM (inactive) and the GI50 [6] was > 100 µM (inactive). The GI50 [7] was > 100 µM (inactive), the GI50 [8] was 45.2 µM (inactive) and the GI50 [9] was > 100 µM (inactive). The GI50 [10] was > 100 µM (inactive), the GI50 [11] was > 100 µM (inactive) and the GI50 [12] was > 100 µM (inactive). The GI50 [13] was > 100 µM (inactive), the GI50 [14] was > 100 µM (inactive) and the GI50 [15] was > 100 µM (inactive). The GI50 [16] was > 100 µM (inactive), the GI50 [17] was > 100 µM (inactive) and the GI50 [18] was > 100 µM (inactive). For the same compound, the GI50 [19] was > 100 µM (inactive).

In the case of `O=C(Cc1c(C(=O)Nc2ccccc2)sc(C(=O)Nc2ccccc2)c1CC(=O)Nc1ccccc1)Nc1ccccc1`, the GI50 [1] is reported as > 100 µM (inactive), the GI50 [2] is reported as > 100 µM (inactive) and the GI50 [3] is reported as > 100 µM (inactive). For the same compound, the GI50 [4] was > 100 µM (inactive), the GI50 [5] was > 100 µM (inactive) and the GI50 [6] was > 100 µM (inactive). For the same compound, the GI50 [7] was > 100 µM (inactive), the GI50 [8] was > 100 µM (inactive) and the GI50 [9] was > 100 µM (inactive). The GI50 [10] was > 100 µM (inactive), the GI50 [11] was > 100 µM (inactive) and the GI50 [12] was > 100 µM (inactive). The GI50 [13] was > 100 µM (inactive), the GI50 [14] was > 100 µM (inactive) and the GI50 [15] was > 100 µM (inactive). For the same compound, the GI50 [16] was > 100 µM (inactive), the GI50 [17] was > 100 µM (inactive) and the GI50 [18] was > 100 µM (inactive). The GI50 [19] was > 100 µM (inactive).
